The values below come from publication PMC7253369, “Cellular and Structural Basis of Synthesis of the Unique Intermediate Dehydro-F420-0 in Mycobacteria” (mSystems, 2020).

The target of data set [1] is T1, FbiA (Mycolicibacterium smegmatis, UniProt A0QTG2).
T1 construct: expressed in M. smegmatis mc^2155 (homologous host); homodimer
T1 sequence (A0QTG2 1-327): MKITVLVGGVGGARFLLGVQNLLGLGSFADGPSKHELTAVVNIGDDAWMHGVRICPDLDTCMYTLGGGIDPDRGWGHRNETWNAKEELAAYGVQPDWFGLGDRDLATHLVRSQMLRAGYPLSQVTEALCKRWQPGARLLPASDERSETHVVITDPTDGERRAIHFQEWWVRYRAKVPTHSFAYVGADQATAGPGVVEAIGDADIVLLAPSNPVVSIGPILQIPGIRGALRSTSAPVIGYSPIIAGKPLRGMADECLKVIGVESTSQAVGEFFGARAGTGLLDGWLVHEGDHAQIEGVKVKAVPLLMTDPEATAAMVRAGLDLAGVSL
Description: X-ray crystal structure, crystal soaking; co-purification with LC-MS. The data set is classed as binding. The conditions noted are these: pH 8.5, 20% glycerol; no metal seen; active site of Mol. B; carbonyl part poorly resolved.

The target in data set [2] is T1, FbiA. Description: X-ray crystal structure, crystal soaking. Conditions: pH 8.5, 20% glycerol. Type of data set: binding.
Data set [3] concerns the molecule itself. Description: SEC-MALS; Superdex S200 Increase 10/300 in 200 mM NaCl, 50 mM Tris pH 7.9; purified FbiA; MALS detection (Wyatt).

As for `C=C(OP(=O)(O)OC[C@@H](O)[C@@H](O)[C@@H](O)Cn1c2nc(=O)[nH]c(=O)c-2cc2ccc(O)cc21)C(=O)O` [DH-F420-0], in data set [1], the “X-ray crystal structure, crystal soaking; co-purification with LC-MS” value is “FbiA plus DH-F420-0, 6UW7”. `O=c1nc2n(C[C@H](O)[C@H](O)[C@H](O)CO)c3cc(O)ccc3cc-2c(=O)[nH]1` [Fo]: the “X-ray crystal structure, crystal soaking” value in data set [2] (Fo alone (no metal seen) and with GDP and Ca2+, active site of Mol. B) is given as “FbiA plus Fo, 6UW1; FbiA plus GDP, 6UW3; FbiA plus GDP plus Fo, 6UW5”.

As for `Nc1nc2c(ncn2[C@@H]2O[C@H](COP(=O)(O)OP(=O)(O)O)[C@@H](O)[C@H]2O)c(=O)[nH]1` [GDP], the “X-ray crystal structure, crystal soaking” value in data set [2] (GDP alone and with Fo, active-site Ca2+ in Mol. B, in place of unstable EPPG) is “FbiA plus GDP, 6UW3; FbiA plus GDP plus Fo, 6UW5”.

B1: FbiA from M. smegmatis (enzyme)
chain: T1 sequence (A0QTG2 1-327)
notes: FbiA (phosphotransferase that makes dehydro-F420-0; homologous to CofD) from Mycobacterium smegmatis, gene MSMEG_1830; Copurifies with its product DH-F420-0 and some mature F420 (small molecules); also called MSMEG_1830; Mol. A; source: M. smegmatis mc2155, pMyNT vector, acetamide-induced, purified (Ni2+ agarose, SEC, TEV cleavage); not shown: His6, N-terminal, cleaved
For B1, the “stoichiometry N” value in data set [3] was 2.
